Assay results taken from US20060172334A1, “Method for detecting adverse reaction susceptibility to an HMG CoA reductase inhibitor” (Marshfield Clinic, priority 2005, published 2006).
Read-outs that look alike come from different tables or passages of the source.

Settings: cases only
[1] = CYP3A4 heterozygous (CYP3A4*1A/*1B), less gemfibrozil
[2] = CYP3A4 heterozygous (CYP3A4*1A/*1B), less gemfibrozil AND less niacin
[3] = CYP3A4 heterozygous (CYP3A4*1A/*1B), no medications removed
[4] = CYP3A4 homozygous (CYP3A4*1A/*1A), less gemfibrozil
[5] = CYP3A4 homozygous (CYP3A4*1A/*1A), less gemfibrozil AND less niacin
[6] = CYP3A4 homozygous (CYP3A4*1A/*1A), no medications removed
[7] = CYP3A5 heterozygous (CYP3A5*1/*3), less gemfibrozil
[8] = CYP3A5 heterozygous (CYP3A5*1/*3), less gemfibrozil AND less niacin
[9] = CYP3A5 heterozygous (CYP3A5*1/*3), no medications removed
[10] = CYP3A5 homozygous (CYP3A5*3/*3), less gemfibrozil
[11] = CYP3A5 homozygous (CYP3A5*3/*3), less gemfibrozil AND less niacin
[12] = CYP3A5 homozygous (CYP3A5*3/*3), no medications removed

Protocol: Study subjects were enrolled at a large, horizontally-integrated, multispecialty group practice located in central Wisconsin. […] Case assignment (i.e., status as a case versus control) was determined by criteria outlined below.
One hundred thirty-seven adult subjects (68 cases and 69 controls) agreed to participate in this study. Due to potentially confounding pharmacokinetic interactions, patients were excluded from the study if they had previously been diagnosed with kidney disease or liver disease. Patients were also excluded if they had pre-existing muscle disease. Patients were not excluded if they were taking concomitant medications.
To determine whether CYP3A4*1B or CYP3A5*3 were associated with the severity of muscle damage, serum CK levels were ranked and compared between genotypes in the case cohort only.

- serum CK level, Mean [1]: 268.8
- serum CK level, Median [1]: 246.0
- serum CK level, Mean [2]: 246.6
- serum CK level, Median [2]: 239.0
- serum CK level, Mean [3]: 268.8
- serum CK level, Median [3]: 246.0
- serum CK level, Mean [4]: 434.6
- serum CK level, Median [4]: 316.5
- serum CK level, Mean [5]: 420.4
- serum CK level, Median [5]: 316.5
- serum CK level, Mean [6]: 441.1
- serum CK level, Median [6]: 321.0
- serum CK level, Mean [7]: 261.7
- serum CK level, Median [7]: 239.0
- serum CK level, Mean [8]: 249.9
- serum CK level, Median [8]: 237.5
- serum CK level, Mean [9]: 344.0
- serum CK level, Median [9]: 246.0
- serum CK level, Mean [10]: 441.9
- serum CK level, Median [10]: 321.0
- serum CK level, Mean [11]: 428.0
- serum CK level, Median [11]: 321.0
- serum CK level, Mean [12]: 429.2
- serum CK level, Median [12]: 317.5
SMILES: CC(C)c1c(C(=O)Nc2ccccc2)c(-c2ccccc2)c(-c2ccc(F)cc2)n1CC[C@@H](O)C[C@@H](O)CC(=O)O [atorvastatin]
